Reference: publication PMC4864329, “In vitro and in vivo efficacy, toxicity, bio-distribution and resistance selection of a novel antibacterial drug candidate” (Scientific Reports, 2016)
“And” between values parts separate entries of the source, which are not always exact repeats. Equal values may be shown once.

Tests used:
[1] = system: K. pneumoniae strain KKBO-1; assay type: cell-based, Klebsiella pneumoniae; details: K. pneumoniae KKBO-1
Experimental: (§1) Tests were performed by plating cells on SET-M33L- or colistin-containing MHB.

[2] = system: Pseudomonas aeruginosa clinical isolates; experiment: MIC by standard microdilution, clinical isolates of Pseudomonas aeruginosa; assay type: cell-based
Experimental: Minimum inhibitory concentrations (MICs) of SET-M33L were determined against 76 clinical isolates of Pseudomonas aeruginosa and 73 clinical isolates of Klebsiella pneumoniae. The isolates were selected on the basis of their resistance phenotypes and major antibiotic resistance determinants, including resistance to colistin and carriage of carbapenemase-encoding genes (Table 1 and supplemental Tables S1 and S2).
MIC values were determined against a large collection of clinical isolates. Most isolates were collected during routine susceptibility testing procedures at the Clinical Microbiology Unit of Careggi University Hospital in Florence, while specific isolates were selected according to their phenotype or genotype (e.g. carriage of carbapenemase-encoding genes, inclusion in epidemic bacterial clones, resistance to colistin) from a collection of isolates already available at Department of Medical Biotechnologies, University of Siena. Detailed features of each strain, including relevant resistance phenotypes and genotypes were reported in supplemental Tables S1 and S2. MICs were determined in triplicate using a standard microdilution assay according to the guidelines of the Clinical and Laboratory Standards Institute[34]. SET-M33L was assayed using concentrations in the range 0.09–11.2 μM (0.5–64 μg/mL); testing was performed using a bacterial inoculum of 5 × 10^4 CFU/well prepared in cation-supplemented Mueller-Hinton broth (MHB) (Becton Dickinson, Franklin Lakes, NJ, USA) in a final volume of 100 μl. Results were recorded after 18–20 h of incubation at 35 °C.

[3] = system: K. pneumoniae strain KKBO-1; experiment: In vitro selection of resistant mutants on peptide-containing MHB agarose; assay type: cell-based, Klebsiella pneumoniae; details: KKBO-1, same experimental conditions
Experimental: as §1
Selection was performed on an MHB-based selection medium containing 1% low electro-osmosis agarose as solidifying agent and 11.2 μM SET-M33L (64 μg/mL). Agarose was preferred to agar as solidifying agent due to the observed loss of antimicrobial activity of SET-M33L in selection media solidified with the latter, possibly due to the charged nature of agar. Klebsiella pneumoniae KKBO-1 strain was grown in MHB at 37 °C to OD600 0.35 and up to 5 × 10^9 colony forming units (CFU) were spread on Petri dishes containing 20 ml of the selection medium. Plates were incubated for 16–18 h at 37 °C. Colistin-containing selection medium (equimolar concentration with respect to SET-M33L) was used as control for the selection of colistin-resistant mutants. Experiments were performed in triplicate.

BALB/c mice = experiment: Acute toxicity in mice, single i.v. dose; assay type: in vivo, mouse; details: for mortality: single i.v. dose 10 mg/Kg
Experimental: As preliminary toxicity evaluation we first compared the acute toxicity of SET-M33L and SET-M33L-PEG with that of colistin. Animals (10 BALB/c mice/group) were injected i.v. with different amounts of SET-M33L, SET-M33L-PEG or colistin, in single dose, in the range 5–40 mg/kg (Fig. 4), and were monitored for 4 days after inoculation of the peptide. […] At 40 mg/Kg SET-M33L and SET-M33L-PEG produced similar toxicity profiles with strong signs of toxicity and 90–100% mortality after 96 hours. Colistin produced strong signs of toxicity already at 10 mg/Kg: 50% mortality immediately after inoculation and 70% mortality after 24 hours. Colistin induced sudden death in 100% of mice at 20 and 40 mg/Kg.
Mice were treated by a single i.v. administration of different amounts (40, 20, 10, 5 mg/Kg) of SET-M33L, SET-M33L-PEG or colistin sulfate (Sigma-Aldrich, C4461). Signs of toxicity were checked four times a day by visual inspection. A toxicity score was assigned for the following signs: wiry coat and poor motility = mild signs; very wiry coat, abundant lachrymation and poor motility even under stimulation = manifest signs. Animals were monitored for 4 days after inoculation of the peptide. Mice were weighed every day from arrival to the last day of the experiment. Moribund animals were killed humanely to avoid unnecessary distress.

For colistin sulfate, the MIC [1] was 0.15 µM, the MIC ([2]; isolate SI_P1, phenotype none) was ≤ 0.5 µg/mL and the MIC ([2]; isolate SI_P2, CARB, β/I, ESC, FQ, AG, blaVIM) was 2 µg/mL. The MIC ([2]; isolate SI_P3, phenotype none) was 2 µg/mL, the MIC ([2]; isolate SI_P4, CARB, β/I, ESC, FQ, AG) was ≤ 0.5 µg/mL and the MIC ([2]; isolate SI_P5, CARB, ESC, β/I, FQ, AG) was ≤ 0.5 µg/mL. The MIC ([2]; isolate SI_P6, phenotype none) was 2 µg/mL, the MIC ([2]; isolate SI_P7, CARB, β/I, ESC, FQ, AG) was ≤ 0.5 µg/mL and the MIC ([2]; isolate SI_P8, CARB, ESC, AG) was ≤ 0.5 µg/mL. The MIC ([2]; isolate SI_P9, CARB, β/I, ESC, FQ, AG) was ≤ 0.5 µg/mL, the MIC ([2]; isolate SI_P10, CARB, β/I, ESC, FQ, AG) was ≤ 0.5 µg/mL and the MIC ([2]; isolate SI_P11, CARB, β/I, ESC, FQ, AG) was 2 µg/mL. For the same substance, the MIC ([2]; isolate SI_P12, CARB, β/I, ESC, FQ) was 2 µg/mL, the MIC ([2]; isolate SI_P13, phenotype none) was 2 µg/mL and the MIC ([2]; isolate SI_P14, CARB) was 2 µg/mL. The MIC ([2]; isolate SI_P15, CARB, β/I, ESC, FQ, AG) was ≤ 0.5 µg/mL, the MIC ([2]; isolate SI_P16, CARB, β/I, ESC, FQ, AG) was 2 µg/mL and the MIC ([2]; isolate SI_P17, CARB, β/I, ESC, FQ, AG, blaVIM) was ≤ 0.5 µg/mL. For the same substance, the MIC ([2]; isolate SI_P18, phenotype none) was 1 µg/mL, the MIC ([2]; isolate SI_P19, phenotype none) was 2 µg/mL and the MIC ([2]; isolate SI_P20, phenotype none) was ≤ 0.5 µg/mL. The MIC ([2]; isolate SI_P21, FQ, AG) was 1 µg/mL, the MIC ([2]; isolate SI_P22, phenotype none) was ≤ 0.5 µg/mL and the MIC ([2]; isolate SI_P23, phenotype none) was ≤ 0.5 µg/mL. For the same substance, the MIC ([2]; isolate SI_P24, phenotype none) was ≤ 0.5 µg/mL, the MIC ([2]; isolate SI_P25, AG) was ≤ 0.5 µg/mL and the MIC ([2]; isolate SI_P26, phenotype none) was ≤ 0.5 µg/mL. For the same substance, the MIC ([2]; isolate SI_P27, CARB) was ≤ 0.5 µg/mL, the MIC ([2]; isolate SI_P28, phenotype none) was ≤ 0.5 µg/mL and the MIC ([2]; isolate SI_P29, phenotype none) was ≤ 0.5 µg/mL. For the same substance, the MIC ([2]; isolate SI_P30, phenotype none) was ≤ 0.5 µg/mL, the MIC ([2]; isolate SI_P31, phenotype none) was ≤ 0.5 µg/mL and the MIC ([2]; isolate SI_P32, phenotype none) was ≤ 0.5 µg/mL. For the same substance, the MIC ([2]; isolate SI_P33, CARB, β/I, ESC, FQ) was ≤ 0.5 µg/mL, the MIC ([2]; isolate SI_P34, CARB, β/I) was ≤ 0.5 µg/mL and the MIC ([2]; isolate SI_P35, CARB, β/I, ESC, FQ) was 2 µg/mL. For the same substance, the MIC ([2]; isolate SI_P36, CARB, AG) was ≤ 0.5 µg/mL, the MIC ([2]; isolate SI_P37, CARB, β/I, ESC, FQ, AG) was ≤ 0.5 µg/mL and the MIC ([2]; isolate SI_P38, CARB, β/I, ESC, FQ, AG, blaVIM) was ≤ 0.5 µg/mL. The MIC ([2]; isolate SI_P39, CARB, β/I, ESC, FQ, AG, blaVIM) was ≤ 0.5 μg/mL and ≤ 0.4 μM, the MIC ([2]; isolate SI_P40, phenotype none) was ≤ 0.5 μg/mL and ≤ 0.4 μM and the MIC ([2]; isolate SI_P41, CARB, β/I, ESC, FQ, AG) was ≤ 0.5 μg/mL and ≤ 0.4 μM. The MIC ([2]; isolate SI_P42, phenotype none) was ≤ 0.5 μg/mL and ≤ 0.4 μM, the MIC ([2]; isolate SI_P43, FQ) was ≤ 0.4 μM and ≤ 0.5 μg/mL and the MIC ([2]; isolate SI_P44, CARB, ESC, FQ, AG) was ≤ 0.5 μg/mL and ≤ 0.4 μM. The MIC ([2]; isolate SI_P45, phenotype none) was ≤ 0.5 μg/mL and ≤ 0.4 μM, the MIC ([2]; isolate SI_P46, phenotype none) was ≤ 0.5 μg/mL and ≤ 0.4 μM and the MIC ([2]; isolate SI_P47, phenotype none) was ≤ 0.5 μg/mL and ≤ 0.4 μM. For the same substance, the MIC ([2]; isolate SI_P48, phenotype none) was ≤ 0.5 μg/mL and ≤ 0.4 μM, the MIC ([2]; isolate SI_P49, CARB, β/I, ESC, FQ, AG) was ≤ 0.5 μg/mL and ≤ 0.4 μM and the MIC ([2]; isolate SI_P50, phenotype none) was ≤ 0.5 μg/mL and ≤ 0.4 μM. For the same substance, the MIC ([2]; isolate SI_P51, CARB, β/I, ESC, FQ, AG) was ≤ 0.5 μg/mL and ≤ 0.4 μM, the MIC ([2]; isolate SI_P52, CARB, AG) was ≤ 0.5 μg/mL and ≤ 0.4 μM and the MIC ([2]; isolate SI_P53, CARB, β/I, ESC, FQ) was ≤ 0.5 μg/mL and ≤ 0.4 μM. For the same substance, the MIC ([2]; isolate SI_P54, CARB, β/I, FQ, AG) was ≤ 0.5 μg/mL and ≤ 0.4 μM, the MIC ([2]; isolate SI_P55, phenotype none) was ≤ 0.5 μg/mL and ≤ 0.4 μM and the MIC ([2]; isolate SI_P56, CARB) was ≤ 0.5 μg/mL and ≤ 0.4 μM. For the same substance, the MIC ([2]; isolate SI_P57, β/I) was ≤ 0.5 μg/mL and ≤ 0.4 μM, the MIC ([2]; isolate SI_P58, FQ, AG) was ≤ 0.5 μg/mL and ≤ 0.4 μM and the MIC ([2]; isolate SI_P59, β/I, ESC) was ≤ 0.5 μg/mL and ≤ 0.4 μM. For the same substance, the MIC ([2]; isolate SI_P60, CARB, β/I, ESC, FQ, AG, blaVIM) was 2 μg/mL and 1.5 μM, the MIC ([2]; isolate SI_P61, CARB, β/I, ESC, FQ, AG, blaVIM) was ≤ 0.5 μg/mL and ≤ 0.4 μM and the MIC ([2]; isolate SI_P62, CARB, β/I, ESC, FQ, AG, blaVIM) was 2 μg/mL and 1.5 μM. The MIC ([2]; isolate SI_P63, CARB, β/I, ESC, FQ, AG, blaVIM) was ≤ 0.5 μg/mL and ≤ 0.4 μM, the MIC ([2]; isolate SI_P64, CARB, β/I, ESC, FQ, AG) was ≤ 0.5 μg/mL and ≤ 0.4 μM and the MIC ([2]; isolate SI_P65, CARB, β/I, ESC, FQ, AG) was 2 μg/mL and 1.5 μM. The MIC ([2]; isolate SI_P66, CARB, FQ) was ≤ 0.5 μg/mL and ≤ 0.4 μM, the MIC ([2]; isolate SI_P67, CARB, β/I, ESC, FQ, AG, blaVIM) was ≤ 0.5 μg/mL and ≤ 0.4 μM and the MIC ([2]; isolate SI_P68, phenotype none) was ≤ 0.5 μg/mL and ≤ 0.4 μM. For the same substance, the MIC ([2]; isolate SI_P69, CARB) was 2 μg/mL and 1.5 μM, the MIC ([2]; isolate SI_P70, CARB) was ≤ 0.5 μg/mL and ≤ 0.4 μM and the MIC ([2]; isolate SI_P71, phenotype none) was ≤ 0.5 μg/mL and ≤ 0.4 μM. The MIC ([2]; isolate SI_P72, FQ, AG) was 2 μg/mL and 1.5 μM, the MIC ([2]; isolate SI_P73, β/I) was ≤ 0.5 μg/mL and ≤ 0.4 μM and the MIC ([2]; isolate SI_P74, phenotype none) was ≤ 0.5 μg/mL and ≤ 0.4 μM. For the same substance, the MIC ([2]; isolate SI_P75, CARB, β/I, ESC, FQ, AG, blaIMP) was 2 μg/mL and 1.5 μM, the MIC ([2]; isolate SI_P76, CARB, β/I, ESC, FQ, AG, blaIMP) was 1 μg/mL and 0.7 μM and the “times more prone to select resistant mutants than SET-M33L” value [3] was “at least 500”. For the same substance, the mortality (BALB/c mice; after 24 hours) was 70%, the mortality (BALB/c mice; immediately after inoculation) was 50% and the sudden death (BALB/c mice; single i.v. dose 20 mg/Kg) was 100%. It also gave a sudden death (BALB/c mice; single i.v. dose 40 mg/Kg) of 100%.
